Source: ChEMBL document CHEMBL3991601, “The target landscape of clinical kinase drugs” (Science, 2017)
Activity calls are given as the source filed them.

Key:
[1] = target: T1, Dynamin-like GTPase OPA1, mitochondrial (Homo sapiens, UniProt O60313)
T1 sequence (O60313 whole entry): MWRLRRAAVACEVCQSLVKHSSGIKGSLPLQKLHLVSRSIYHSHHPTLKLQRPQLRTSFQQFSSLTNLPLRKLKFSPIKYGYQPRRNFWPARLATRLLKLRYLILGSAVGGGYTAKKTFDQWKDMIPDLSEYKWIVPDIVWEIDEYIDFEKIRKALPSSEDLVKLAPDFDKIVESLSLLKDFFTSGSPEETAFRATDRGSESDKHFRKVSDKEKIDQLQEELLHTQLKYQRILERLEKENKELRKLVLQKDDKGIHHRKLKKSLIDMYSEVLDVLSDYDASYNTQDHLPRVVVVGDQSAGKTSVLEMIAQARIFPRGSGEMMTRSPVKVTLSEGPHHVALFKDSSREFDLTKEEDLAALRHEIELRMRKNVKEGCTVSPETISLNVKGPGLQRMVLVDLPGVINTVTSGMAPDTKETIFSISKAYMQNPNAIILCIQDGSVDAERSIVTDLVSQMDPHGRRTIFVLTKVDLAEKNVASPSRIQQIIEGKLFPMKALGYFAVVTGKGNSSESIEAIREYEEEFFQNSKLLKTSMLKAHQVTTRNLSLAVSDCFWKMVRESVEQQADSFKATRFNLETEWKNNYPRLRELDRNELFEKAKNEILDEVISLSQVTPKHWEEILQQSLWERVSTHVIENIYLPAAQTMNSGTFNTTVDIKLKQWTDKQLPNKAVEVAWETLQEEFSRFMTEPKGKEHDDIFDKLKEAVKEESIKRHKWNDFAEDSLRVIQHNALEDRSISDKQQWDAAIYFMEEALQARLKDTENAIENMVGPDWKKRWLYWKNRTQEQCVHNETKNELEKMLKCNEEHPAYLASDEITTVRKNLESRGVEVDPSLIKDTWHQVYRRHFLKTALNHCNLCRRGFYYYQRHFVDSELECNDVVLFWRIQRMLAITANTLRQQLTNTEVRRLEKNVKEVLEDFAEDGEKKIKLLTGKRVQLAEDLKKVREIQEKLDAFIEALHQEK

[2] = target: Mitogen-activated protein kinase kinase kinase kinase 4 (Homo sapiens, UniProt O95819)
[3] = target: T2, Mitogen-activated protein kinase kinase kinase 3 (Homo sapiens, UniProt Q99759)
T2 sequence (Q99759 whole entry): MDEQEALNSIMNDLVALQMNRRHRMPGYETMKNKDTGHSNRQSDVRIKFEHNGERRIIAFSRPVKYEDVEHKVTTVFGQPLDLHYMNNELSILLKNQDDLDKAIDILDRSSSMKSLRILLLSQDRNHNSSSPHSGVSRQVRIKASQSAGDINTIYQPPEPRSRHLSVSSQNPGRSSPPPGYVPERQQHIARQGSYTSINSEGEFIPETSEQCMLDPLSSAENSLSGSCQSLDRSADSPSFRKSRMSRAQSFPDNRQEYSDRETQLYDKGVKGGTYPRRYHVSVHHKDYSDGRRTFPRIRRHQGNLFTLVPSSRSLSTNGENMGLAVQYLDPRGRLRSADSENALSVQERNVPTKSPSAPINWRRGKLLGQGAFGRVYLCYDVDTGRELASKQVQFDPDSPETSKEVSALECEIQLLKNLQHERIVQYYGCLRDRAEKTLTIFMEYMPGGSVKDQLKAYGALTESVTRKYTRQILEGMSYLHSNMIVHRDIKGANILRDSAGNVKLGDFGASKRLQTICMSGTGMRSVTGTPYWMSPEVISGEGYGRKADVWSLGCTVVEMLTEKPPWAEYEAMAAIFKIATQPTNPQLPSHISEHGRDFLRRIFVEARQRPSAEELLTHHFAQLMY

[4] = target: Citron Rho-interacting kinase (Homo sapiens, UniProt O14578)
[5] = target: RAC-alpha serine/threonine-protein kinase (Homo sapiens, UniProt P31749)
[6] = target: Inosine-5'-monophosphate dehydrogenase 2 (Homo sapiens, UniProt P12268)
[7] = target: Tyrosine-protein kinase BTK (Homo sapiens, UniProt Q06187)
DNA topoisomerase 2-beta = DNA topoisomerase 2-beta (Homo sapiens, UniProt Q02880)
Wee1-like protein kinase = Wee1-like protein kinase (Homo sapiens, UniProt P30291)
ADP/ATP translocase 3 = target: T3, ADP/ATP translocase 3 (Homo sapiens, UniProt P12236)
T3 sequence (P12236 whole entry): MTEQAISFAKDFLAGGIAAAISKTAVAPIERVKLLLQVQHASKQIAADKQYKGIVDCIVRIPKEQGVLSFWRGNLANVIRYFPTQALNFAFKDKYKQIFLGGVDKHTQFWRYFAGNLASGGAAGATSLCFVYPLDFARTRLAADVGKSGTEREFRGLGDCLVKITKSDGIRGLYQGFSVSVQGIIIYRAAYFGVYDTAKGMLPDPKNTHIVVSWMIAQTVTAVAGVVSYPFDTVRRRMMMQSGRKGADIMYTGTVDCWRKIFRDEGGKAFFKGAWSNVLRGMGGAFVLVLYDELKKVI

[8] = target: 5'-AMP-activated protein kinase catalytic subunit alpha-1 (Homo sapiens, UniProt Q13131)
[9] = target: T4, Dual specificity mitogen-activated protein kinase kinase 3 (Homo sapiens, UniProt P46734)
T4 sequence (P46734 whole entry): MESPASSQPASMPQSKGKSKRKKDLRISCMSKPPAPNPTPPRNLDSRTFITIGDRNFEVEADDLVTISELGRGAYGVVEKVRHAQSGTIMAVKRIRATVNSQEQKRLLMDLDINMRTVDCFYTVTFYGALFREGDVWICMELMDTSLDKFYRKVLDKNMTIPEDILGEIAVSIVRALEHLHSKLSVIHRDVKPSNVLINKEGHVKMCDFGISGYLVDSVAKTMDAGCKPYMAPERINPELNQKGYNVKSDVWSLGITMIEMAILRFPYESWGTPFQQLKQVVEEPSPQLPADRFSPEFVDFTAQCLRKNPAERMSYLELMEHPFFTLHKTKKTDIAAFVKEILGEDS

dCTP pyrophosphatase 1 = target: T5, dCTP pyrophosphatase 1 (Homo sapiens, UniProt Q9H773)
T5 sequence (Q9H773 whole entry): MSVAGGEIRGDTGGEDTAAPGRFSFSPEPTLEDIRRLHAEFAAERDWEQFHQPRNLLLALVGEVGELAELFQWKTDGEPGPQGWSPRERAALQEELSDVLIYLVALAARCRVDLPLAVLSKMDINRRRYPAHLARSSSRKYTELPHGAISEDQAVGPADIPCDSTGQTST
Note: in the data inactive means no Kd found up to 30 µM.

Sequence of Wee1-like protein kinase (P30291 whole entry): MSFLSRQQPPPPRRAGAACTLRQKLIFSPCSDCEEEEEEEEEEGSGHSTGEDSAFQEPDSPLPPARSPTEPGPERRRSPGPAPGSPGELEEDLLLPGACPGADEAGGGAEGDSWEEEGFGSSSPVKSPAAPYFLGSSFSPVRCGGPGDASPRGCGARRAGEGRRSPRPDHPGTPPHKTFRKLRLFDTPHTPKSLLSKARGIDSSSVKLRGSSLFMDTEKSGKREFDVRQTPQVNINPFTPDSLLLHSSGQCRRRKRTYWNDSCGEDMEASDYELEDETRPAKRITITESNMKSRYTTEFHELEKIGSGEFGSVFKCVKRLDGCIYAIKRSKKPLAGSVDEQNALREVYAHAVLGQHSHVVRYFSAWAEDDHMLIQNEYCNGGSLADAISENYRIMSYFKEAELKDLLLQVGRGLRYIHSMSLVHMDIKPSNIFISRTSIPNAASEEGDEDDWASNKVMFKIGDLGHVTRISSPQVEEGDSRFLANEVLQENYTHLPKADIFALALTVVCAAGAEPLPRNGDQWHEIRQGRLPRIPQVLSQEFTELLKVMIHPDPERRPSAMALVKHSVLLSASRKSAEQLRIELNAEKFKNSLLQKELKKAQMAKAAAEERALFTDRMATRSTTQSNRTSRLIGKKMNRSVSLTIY
Sequence of Mitogen-activated protein kinase kinase kinase kinase 4 (O95819 whole entry): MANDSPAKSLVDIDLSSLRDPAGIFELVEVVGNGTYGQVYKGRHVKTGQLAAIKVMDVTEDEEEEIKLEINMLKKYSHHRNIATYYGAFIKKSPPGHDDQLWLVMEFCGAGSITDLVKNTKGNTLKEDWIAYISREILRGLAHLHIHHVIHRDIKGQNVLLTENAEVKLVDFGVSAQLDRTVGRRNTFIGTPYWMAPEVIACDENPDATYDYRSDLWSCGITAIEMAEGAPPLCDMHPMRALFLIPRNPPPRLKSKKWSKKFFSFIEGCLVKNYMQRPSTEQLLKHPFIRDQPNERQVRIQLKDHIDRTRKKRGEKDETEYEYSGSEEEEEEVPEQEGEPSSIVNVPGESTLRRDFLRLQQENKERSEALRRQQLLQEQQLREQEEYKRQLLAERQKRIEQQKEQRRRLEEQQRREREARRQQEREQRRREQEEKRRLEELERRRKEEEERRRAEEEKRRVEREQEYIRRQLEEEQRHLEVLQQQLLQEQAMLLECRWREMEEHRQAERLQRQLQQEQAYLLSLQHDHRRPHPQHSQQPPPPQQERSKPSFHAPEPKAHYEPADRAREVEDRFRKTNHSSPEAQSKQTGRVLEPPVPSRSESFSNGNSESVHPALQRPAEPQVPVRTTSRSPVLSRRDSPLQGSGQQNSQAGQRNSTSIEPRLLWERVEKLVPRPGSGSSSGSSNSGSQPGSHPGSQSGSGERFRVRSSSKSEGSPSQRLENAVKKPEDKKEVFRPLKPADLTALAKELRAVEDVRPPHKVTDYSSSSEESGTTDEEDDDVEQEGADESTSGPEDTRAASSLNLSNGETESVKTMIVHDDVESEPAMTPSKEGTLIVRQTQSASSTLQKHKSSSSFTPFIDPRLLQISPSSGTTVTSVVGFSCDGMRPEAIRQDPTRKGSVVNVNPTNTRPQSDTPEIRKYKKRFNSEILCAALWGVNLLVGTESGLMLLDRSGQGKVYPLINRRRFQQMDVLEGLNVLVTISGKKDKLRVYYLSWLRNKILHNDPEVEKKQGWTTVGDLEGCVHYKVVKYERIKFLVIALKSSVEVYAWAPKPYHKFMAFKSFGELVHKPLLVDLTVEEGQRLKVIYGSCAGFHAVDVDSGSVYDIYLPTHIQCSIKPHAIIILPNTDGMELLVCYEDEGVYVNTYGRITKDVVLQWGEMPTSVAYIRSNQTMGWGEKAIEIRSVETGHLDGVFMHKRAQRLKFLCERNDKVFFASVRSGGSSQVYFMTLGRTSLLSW
Sequence of DNA topoisomerase 2-beta (Q02880 whole entry): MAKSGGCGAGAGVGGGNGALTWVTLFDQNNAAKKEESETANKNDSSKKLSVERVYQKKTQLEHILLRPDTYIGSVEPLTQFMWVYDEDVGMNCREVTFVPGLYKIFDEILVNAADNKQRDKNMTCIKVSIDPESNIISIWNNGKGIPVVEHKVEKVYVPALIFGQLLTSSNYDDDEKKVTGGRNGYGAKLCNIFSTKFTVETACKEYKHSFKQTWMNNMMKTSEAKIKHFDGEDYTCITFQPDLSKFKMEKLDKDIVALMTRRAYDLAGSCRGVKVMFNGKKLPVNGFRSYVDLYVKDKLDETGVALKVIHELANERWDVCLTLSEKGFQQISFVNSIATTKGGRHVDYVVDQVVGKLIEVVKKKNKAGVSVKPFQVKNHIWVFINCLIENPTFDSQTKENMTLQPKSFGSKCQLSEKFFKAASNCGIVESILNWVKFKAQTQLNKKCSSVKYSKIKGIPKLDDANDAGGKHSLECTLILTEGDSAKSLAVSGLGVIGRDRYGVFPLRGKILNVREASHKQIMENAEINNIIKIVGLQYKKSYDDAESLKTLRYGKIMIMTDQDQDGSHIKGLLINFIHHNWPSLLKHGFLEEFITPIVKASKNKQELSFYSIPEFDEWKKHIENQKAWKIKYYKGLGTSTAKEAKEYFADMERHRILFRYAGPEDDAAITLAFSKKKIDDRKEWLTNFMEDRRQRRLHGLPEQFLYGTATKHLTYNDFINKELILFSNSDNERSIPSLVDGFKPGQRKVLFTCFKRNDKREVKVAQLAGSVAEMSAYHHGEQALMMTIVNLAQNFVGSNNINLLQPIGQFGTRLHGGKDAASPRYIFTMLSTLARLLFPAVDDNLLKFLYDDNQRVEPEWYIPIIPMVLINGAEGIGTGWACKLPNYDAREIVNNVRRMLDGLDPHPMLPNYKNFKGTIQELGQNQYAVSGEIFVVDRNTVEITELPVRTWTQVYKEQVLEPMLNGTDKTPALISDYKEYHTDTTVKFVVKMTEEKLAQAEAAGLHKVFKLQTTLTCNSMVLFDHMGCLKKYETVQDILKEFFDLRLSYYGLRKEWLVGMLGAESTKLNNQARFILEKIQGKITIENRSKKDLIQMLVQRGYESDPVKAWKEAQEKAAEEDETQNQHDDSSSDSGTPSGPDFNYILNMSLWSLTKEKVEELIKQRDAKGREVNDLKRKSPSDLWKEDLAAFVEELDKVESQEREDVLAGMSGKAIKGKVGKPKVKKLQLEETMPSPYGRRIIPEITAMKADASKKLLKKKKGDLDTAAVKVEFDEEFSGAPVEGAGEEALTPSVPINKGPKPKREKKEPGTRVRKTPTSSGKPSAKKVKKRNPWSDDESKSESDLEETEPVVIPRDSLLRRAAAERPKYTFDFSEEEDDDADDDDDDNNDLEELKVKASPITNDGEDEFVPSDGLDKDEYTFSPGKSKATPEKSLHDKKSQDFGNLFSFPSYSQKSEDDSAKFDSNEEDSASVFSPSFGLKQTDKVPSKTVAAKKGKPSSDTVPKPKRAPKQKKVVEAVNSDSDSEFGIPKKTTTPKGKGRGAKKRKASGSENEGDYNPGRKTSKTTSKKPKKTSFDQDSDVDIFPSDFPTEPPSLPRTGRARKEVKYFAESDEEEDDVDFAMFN
Sequence of Tyrosine-protein kinase BTK (Q06187 whole entry): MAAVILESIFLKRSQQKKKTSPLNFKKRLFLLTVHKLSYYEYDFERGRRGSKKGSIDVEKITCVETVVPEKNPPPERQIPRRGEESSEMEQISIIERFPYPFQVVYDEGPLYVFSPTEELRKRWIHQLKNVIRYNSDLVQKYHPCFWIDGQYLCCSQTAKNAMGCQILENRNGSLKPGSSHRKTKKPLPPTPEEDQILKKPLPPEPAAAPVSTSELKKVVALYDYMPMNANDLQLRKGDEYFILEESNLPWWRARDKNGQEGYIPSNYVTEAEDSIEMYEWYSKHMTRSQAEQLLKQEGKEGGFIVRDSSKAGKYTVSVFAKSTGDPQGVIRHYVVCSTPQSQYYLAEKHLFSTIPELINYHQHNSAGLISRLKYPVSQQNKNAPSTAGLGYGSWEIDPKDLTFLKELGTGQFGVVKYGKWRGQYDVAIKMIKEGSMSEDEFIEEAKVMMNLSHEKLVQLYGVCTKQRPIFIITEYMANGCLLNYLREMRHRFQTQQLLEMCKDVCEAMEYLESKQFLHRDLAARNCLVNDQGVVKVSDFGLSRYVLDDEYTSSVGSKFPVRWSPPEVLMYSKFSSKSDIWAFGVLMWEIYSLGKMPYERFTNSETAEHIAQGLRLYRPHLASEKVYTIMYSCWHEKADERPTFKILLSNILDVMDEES
Sequence of RAC-alpha serine/threonine-protein kinase (P31749 whole entry): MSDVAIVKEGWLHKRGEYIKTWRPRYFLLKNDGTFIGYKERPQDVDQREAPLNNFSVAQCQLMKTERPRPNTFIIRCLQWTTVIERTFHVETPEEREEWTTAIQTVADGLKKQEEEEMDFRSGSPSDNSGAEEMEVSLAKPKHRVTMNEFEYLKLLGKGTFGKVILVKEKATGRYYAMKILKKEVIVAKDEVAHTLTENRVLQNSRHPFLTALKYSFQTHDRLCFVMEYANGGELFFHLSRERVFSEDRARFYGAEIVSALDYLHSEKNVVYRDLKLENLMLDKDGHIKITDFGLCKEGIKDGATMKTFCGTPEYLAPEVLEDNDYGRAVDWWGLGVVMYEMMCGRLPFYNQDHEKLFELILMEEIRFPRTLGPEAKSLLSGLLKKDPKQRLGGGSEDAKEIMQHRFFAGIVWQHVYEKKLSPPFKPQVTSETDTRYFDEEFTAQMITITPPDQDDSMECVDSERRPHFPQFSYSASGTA

| Kd [1] | Kd [2] | Kd [3] | Kd [4] | Kd [5] | Kd [6] | Kd [7] | Kd (DNA topoisomerase 2-beta) | Kd (Wee1-like protein kinase) | Kd (ADP/ATP translocase 3) | Kd [8] | Kd [9] | Kd (dCTP pyrophosphatase 1) | SMILES |
| --- | --- | --- | --- | --- | --- | --- | --- | --- | --- | --- | --- | --- | --- |
| > 30 µM (inactive) | > 30 µM (inactive) | > 30 µM (inactive) | 3.66 µM (active) | > 30 µM (inactive) | > 30 µM (inactive) | > 30 µM (inactive) | > 30 µM (inactive) | > 30 µM (inactive) | > 30 µM (inactive) | > 30 µM (inactive) | > 30 µM (inactive) | > 30 µM (inactive) | O=c1[nH]c([C@@H]2CCCN2)nc2c1oc1ccc(Cl)cc12 |
| > 30 µM (inactive) | 1.32 µM (active) | > 30 µM (inactive) | 0.798 µM (active) | > 30 µM (inactive) | > 30 µM (inactive) | > 30 µM (inactive) | > 30 µM (inactive) | > 30 µM (inactive) | > 30 µM (inactive) | > 30 µM (inactive) | > 30 µM (inactive) | > 30 µM (inactive) | CCN1CCN(Cc2ccc(Nc3ncc(F)c(-c4cc(F)c5nc(C)n(C(C)C)c5c4)n3)nc2)CC1 [ABEMACICLIB] |
| > 30 µM (inactive) | > 30 µM (inactive) | > 30 µM (inactive) | > 30 µM (inactive) | > 30 µM (inactive) | > 30 µM (inactive) | > 30 µM (inactive) | > 30 µM (inactive) | > 30 µM (inactive) | > 30 µM (inactive) | > 30 µM (inactive) | > 30 µM (inactive) | > 30 µM (inactive) | CCc1cc2c(cc1N1CCC(N3CCOCC3)CC1)C(C)(C)c1[nH]c3cc(C#N)ccc3c1C2=O [ALECTINIB] |
| > 30 µM (inactive) | > 30 µM (inactive) | > 30 µM (inactive) | > 30 µM (inactive) | > 30 µM (inactive) | > 30 µM (inactive) | > 30 µM (inactive) | > 30 µM (inactive) | > 30 µM (inactive) | > 30 µM (inactive) | > 30 µM (inactive) | > 30 µM (inactive) | > 30 µM (inactive) | COc1ccc2c(OCc3nnc4ccc(-c5ccccc5)nn34)ccnc2c1 [AMG-208] |
| > 30 µM (inactive) | > 30 µM (inactive) | > 30 µM (inactive) | > 30 µM (inactive) | > 30 µM (inactive) | > 30 µM (inactive) | > 30 µM (inactive) | > 30 µM (inactive) | > 30 µM (inactive) | > 30 µM (inactive) | > 30 µM (inactive) | > 30 µM (inactive) | > 30 µM (inactive) | S=C(NCc1ccc2c(c1)OCO2)N1CCN(c2ncnc3c2oc2ccccc23)CC1 [AMUVATINIB] |
| > 30 µM (inactive) | > 30 µM (inactive) | > 30 µM (inactive) | > 30 µM (inactive) | > 30 µM (inactive) | > 30 µM (inactive) | > 30 µM (inactive) | > 30 µM (inactive) | > 30 µM (inactive) | > 30 µM (inactive) | > 30 µM (inactive) | > 30 µM (inactive) | > 30 µM (inactive) | Cc1cc(Nc2nc(N[C@@H](C)c3ncc(F)cn3)ncc2Cl)n[nH]1 [AZD-1480] |
| > 30 µM (inactive) | > 30 µM (inactive) | > 30 µM (inactive) | > 30 µM (inactive) | > 30 µM (inactive) | > 30 µM (inactive) | > 30 µM (inactive) | > 30 µM (inactive) | > 30 µM (inactive) | > 30 µM (inactive) | > 30 µM (inactive) | > 30 µM (inactive) | > 30 µM (inactive) | COc1ccc(-c2ccc3ncc4c(c3c2)n(-c2ccc(N3CCNCC3)c(C(F)(F)F)c2)c(=O)n4C)cn1 [BGT-226 FREE BASE] |
| > 30 µM (inactive) | > 30 µM (inactive) | > 30 µM (inactive) | > 30 µM (inactive) | > 30 µM (inactive) | > 30 µM (inactive) | > 30 µM (inactive) | > 30 µM (inactive) | > 30 µM (inactive) | > 30 µM (inactive) | > 30 µM (inactive) | > 30 µM (inactive) | > 30 µM (inactive) | COc1cc2nccc(Oc3ccc(NC(=O)C4(C(=O)Nc5ccc(F)cc5)CC4)cc3)c2cc1OC [CABOZANTINIB] |
| > 30 µM (inactive) | 4.17 µM (active) | > 30 µM (inactive) | > 30 µM (inactive) | > 30 µM (inactive) | > 30 µM (inactive) | > 30 µM (inactive) | > 30 µM (inactive) | > 30 µM (inactive) | > 30 µM (inactive) | > 30 µM (inactive) | > 30 µM (inactive) | > 30 µM (inactive) | c1cc(OCCN2CCCCC2)cc(-c2n[nH]c3ccc(-c4nc[nH]n4)cc23)c1 [CC-401] |

| SMILES | Kd [1] | Kd [2] | Kd [3] | Kd [4] | Kd [5] | Kd [6] | Kd [7] | Kd (DNA topoisomerase 2-beta) | Kd (Wee1-like protein kinase) | Kd (ADP/ATP translocase 3) | Kd [8] | Kd [9] | Kd (dCTP pyrophosphatase 1) |
| --- | --- | --- | --- | --- | --- | --- | --- | --- | --- | --- | --- | --- | --- |
| Cn1cc(-c2[nH]c3cc(NC(=O)[C@H](N)C4CCCCC4)cc4c3c2C=NNC4=O)cn1 | > 30 µM (inactive) | > 30 µM (inactive) | > 30 µM (inactive) | 0.725 µM (active) | > 30 µM (inactive) | > 30 µM (inactive) | 2.84 µM (active) | > 30 µM (inactive) | 4.86 µM (active) | > 30 µM (inactive) | 1.32 µM (active) | > 30 µM (inactive) | > 30 µM (inactive) |
| CC1(COc2ccc3c(c2)ncn3-c2ccc3cccc(N4CCC(N)CC4)c3n2)COC1 [CRENOLANIB] | > 30 µM (inactive) | 0.282 µM (active) | > 30 µM (inactive) | > 30 µM (inactive) | > 30 µM (inactive) | > 30 µM (inactive) | > 30 µM (inactive) | > 30 µM (inactive) | > 30 µM (inactive) | > 30 µM (inactive) | 1.25 µM (active) | > 30 µM (inactive) | > 30 µM (inactive) |
